Consider 90 compounds from PubChem BioAssay AID463203 (Broad Institute, 2010).

The structures appear in SMILES notation. The source made the active and inactive calls.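 Rule for the calls: active = more than half of replicate measurements showing over 20% loss of kinase signal relative to plate controls; inconclusive = some but at most half of replicates over 20% loss; inactive = no replicate over 20% signal loss.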 Bounds are passed on as bounds.

This assay deals with Glycogen synthase kinase-3 alpha (Homo sapiens) (UniProt P49840). Description: concentration-response blocking of human GSK3A – biochemical, luminescence, cell-free homogeneous, retest, dose response (AID 463203). The settings on record: GSK-3 alpha enzyme, ADP-Glo luminescence, 60 min.
Glycogen synthase kinase-3 alpha (Homo sapiens), sequence (P49840 whole entry, looked up): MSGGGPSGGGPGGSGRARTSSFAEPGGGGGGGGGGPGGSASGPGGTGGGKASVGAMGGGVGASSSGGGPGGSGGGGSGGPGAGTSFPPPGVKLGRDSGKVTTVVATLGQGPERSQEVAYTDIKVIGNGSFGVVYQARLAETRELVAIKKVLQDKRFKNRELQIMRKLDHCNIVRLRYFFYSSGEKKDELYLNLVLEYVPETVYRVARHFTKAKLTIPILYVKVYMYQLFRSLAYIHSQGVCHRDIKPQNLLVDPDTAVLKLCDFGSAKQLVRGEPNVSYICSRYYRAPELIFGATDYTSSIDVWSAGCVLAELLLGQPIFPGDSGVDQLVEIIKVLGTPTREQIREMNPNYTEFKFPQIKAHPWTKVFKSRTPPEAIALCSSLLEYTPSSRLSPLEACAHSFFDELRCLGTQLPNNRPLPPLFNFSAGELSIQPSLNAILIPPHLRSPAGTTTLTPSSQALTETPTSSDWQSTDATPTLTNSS
Regarding `Nc1ncnc2c1ncn2[C@@H]1O[C@H](CNCc2ccccc2)[C@@H](O)[C@H]1O`, the AC50 was > 30 µM (inactive).

Take `CCCCCCCOC(=O)C1=C(C)Nc2ncnn2C1c1cccs1` (stereo not given): the AC50 is > 30 µM (inactive).

For `O=C(NCCCCCCNC(=O)OCCO)OCCO`, the AC50 is > 30 µM (inactive).

Regarding `NC(=O)c1cccc(S(=O)(=O)N2CC(c3ccccc3)CC2=O)c1` (stereo not given), the AC50 is > 30 µM (inactive).

As for `CC1CCC[C@H](O)CCCCCc2cc(O)cc(O)c2C(=O)O1` (stereo not given in full), the AC50 was > 30 µM (inactive).

Turning to `O=C(N/N=C/c1cccnc1)c1cc2c(ccc3ccccc32)o1`, the AC50 is > 30 µM (inactive).

With `O=C(c1ccc(Cn2cnnn2)cc1)N1CCCC(Nc2ccc(F)cc2)C1` (stereo not given), the AC50 is 16.1 µM.

`COC(=O)C1=C(C)NC(=O)NC1c1ccc2c(c1)OCO2` (stereo not given): the AC50 was > 30 µM (inactive).

`O=C(Nc1cccc(C(=O)N2CCOCC2)c1)c1cccnc1`: the AC50 is > 30 µM (inactive).

Consider `N#CC1=C2SCN(Cc3ccco3)CN2C(=O)CC1c1ccccc1F` (stereo not given), for which the AC50 was > 30 µM (inactive).

Consider `CCOC(=O)c1sc(NC(=O)CSc2ncn[nH]2)c(C#N)c1C`, for which the AC50 was > 30 µM (inactive).

As for `O=c1[nH]c(=S)n(CCC2=CCCCC2)c(O)c1C=NCCCn1ccnc1`, the concentration at half-maximal activity (AC50) was 14.3 µM.

With `Cc1ccc(N(CC(O)CN2CCCC2)S(=O)(=O)c2ccccc2)cc1` (stereo not given), the AC50 was > 30 µM (inactive).

As for `CCCC1=C(C(=O)OCC)C(c2cccnc2)n2nc(C)nc2N1` (stereo not given), the AC50 was > 30 µM (inactive).

Regarding `CCOC(=O)c1nnn(-c2nonc2N)c1-c1ccc(F)cc1`, the AC50 is 16.1 µM.

For the compound `O=C(c1ccco1)c1cn(CC(=O)N2CCCC2)c2ccccc12`, the AC50 was > 30 µM (inactive).

Turning to `Cc1oc2ccc(O)cc2c1C(=O)c1ccc(Br)cc1`, the AC50 was > 30 µM (inactive).

On to `CCC/C(=N/NC(=O)c1nnn(-c2nonc2N)c1CN1CCCCC1)c1ccccc1`, for which the AC50 was 18.7 µM.

In the case of `Cc1ccc(-c2nc3ncccn3c2Nc2ccc3c(c2)OCCO3)cc1`, the AC50 is > 30 µM (inactive).

`COC(=O)[C@H](C)NC(=O)NCc1ccccc1F`: the AC50 is > 30 µM (inactive).

Take `O=C(CCn1[nH]c(=O)c2ccccc2c1=O)N1CCOCC1`: the AC50 is > 30 µM (inactive).

`CCn1c2ccccc2c2nnc(SCC(N)=O)nc21`: the AC50 was 15.4 µM.

`CCC(=NCc1cccnc1)c1c(O)n(C2CCCCC2)c(=O)[nH]c1=O`: the AC50 was > 30 µM (inactive).

As to `CCCCCCCCCCOC(=O)Cn1c(COc2ccc(Cl)cc2)[n+](C)c2ccccc21`, the AC50 is > 30 µM (inactive).

In the case of `COc1ccc(CCNC(=O)CSc2nc3[nH]ncc3c(=O)n2-c2cccc(C(F)(F)F)c2)cc1OC`, the AC50 was > 30 µM (inactive).

`CCOC(=O)c1ccc(N2CSC3=C(C#N)C(c4ccc(OC)cc4OC)CC(=O)N3C2)cc1` (stereo not given): the AC50 is > 30 µM (inactive).

`COc1cc(C2C(C#N)=C(N)Oc3n[nH]c(-c4cccnc4)c32)ccc1OCC(N)=O` (stereo not given): the AC50 was > 30 µM (inactive).

As for `O=C(NC1(C(F)(F)F)NC(=O)N(Cc2cccnc2)C1=O)c1ccncc1` (stereo not given), the AC50 was > 30 µM (inactive).

For the compound `Cc1ccc(-c2nnc3n2N=C(c2ccc(Br)cc2)CS3)cc1`, the AC50 is > 30 µM (inactive).

For the compound `O=C(NCCN1CCN(Cc2ccccc2)CC1)Nc1cc(Cl)cc(Cl)c1`, the AC50 was > 30 µM (inactive).

Regarding `CCOC(=O)C1=C(c2ccccc2)Nc2ncnn2C1c1cccc(OC)c1OC` (stereo not given), the AC50 is 9 µM.

Turning to `N#CC1=C(N)Oc2n[nH]c(-c3cccnc3)c2C1c1cc(F)ccc1F` (stereo not given), the AC50 is > 30 µM (inactive).

As for `Cc1cccc(C(=O)Nc2cccc(-c3cnc4ccccc4n3)c2)c1`, the AC50 was > 30 µM (inactive).

Take `COc1ccc(Nc2nc(-c3cc4cccc(OC)c4oc3=O)cs2)cc1`: the AC50 was > 30 µM (inactive).

As to `Clc1ccccc1C1=Nn2c(nnc2-c2ccco2)SC1`, the AC50 is 30.4 µM.

In the case of `O=C(O)CCCNc1ccc([N+](=O)[O-])c(NCCCC(=O)O)n1`, the AC50 is > 30 µM (inactive).

As for `COc1cccc(-c2c(C(=O)N/N=C(\C)c3cccnc3)nnn2-c2nonc2N)c1`, the AC50 is > 30 µM (inactive).

Take `CC(C)(C)OC(=O)N1CCC(NC(=O)c2[nH]cnc2C(=O)Nc2ccon2)CC1`: the AC50 is 4.47 µM.

For `CC1CC(=O)c2cnc(NCC3CCCO3)nc2C1` (stereo not given), the AC50 is > 30 µM (inactive).

For `CCOC(=O)c1cc(-c2ccc(F)cc2)n(CC(=O)NC(C)CC)c1C` (stereo not given), the AC50 was > 30 µM (inactive).

`Cc1nc(NCC2CCCO2)[nH]c(=O)c1CCC(C)C` (stereo not given): the AC50 is > 30 µM (inactive).

Regarding `COc1cc(O)c(NC(C)=O)c2nonc12`, the AC50 is > 30 µM (inactive).

On to `O=Nc1c(-c2c(O)[nH]c3cc(Br)ccc23)[nH]c2ccccc12`, for which the concentration at half-maximal activity (AC50) was less than 0.0135 µM.

Turning to `Cc1ccc(C(=O)N2NC(c3ccc(F)cc3)C3C(=O)N(c4ccc(C)c(C)c4)C(=O)C32)cc1` (stereo not given), the AC50 is > 30 µM (inactive).

Take `CN(C)Cc1c(C(=O)N/N=C/c2ccc(-c3ccccc3)cc2)nnn1-c1nonc1N`: the AC50 was > 30 µM (inactive).

In the case of `O=C(CSCCO)Nc1ccc([N+](=O)[O-])cc1`, the AC50 was > 30 µM (inactive).

`Nc1n[nH]c2cc(=O)n(-c3ccc(Cl)cc3)nc12`: the AC50 is 18.9 µM.

Consider `N#Cc1c(N)n(CCNC(=O)c2cccs2)c2nc3ccccc3nc12`, for which the concentration at half-maximal activity (AC50) was 25.7 µM.

Regarding `CCOC(=O)c1[nH]c2c(c1C)C(=O)CC(c1ccc(OC)c(OC)c1)C2` (stereo not given), the AC50 was > 30 µM (inactive).

In the case of `N#Cc1c(Nc2ccccc2)c(C=O)c[nH]c1=O`, the AC50 is > 30 µM (inactive).

`COC(=O)c1c(NC(=O)CN2C(=O)NC3(CCCCC3C)C2=O)sc2c1CCC2` (stereo not given): the AC50 is > 30 µM (inactive).

As to `C[C@H](CO)N1C[C@H](C)[C@@H](CN(C)S(=O)(=O)c2ccccc2)Oc2c(NC(=O)c3ccncc3)cccc2C1=O`, the AC50 is > 30 µM (inactive).

Turning to `COc1cccc2c1C(=O)O/C2=C/c1ccc2c(c1)OCO2`, the AC50 was > 30 µM (inactive).

On to `CCC(=O)/C=C1\Sc2ccc(OC)cc2N1CCO`, for which the AC50 was > 30 µM (inactive).

Regarding `CC(C)=CCc1c(O)cc(O)c2c(=O)c(O[C@@H]3O[C@@H](C)[C@H](O)[C@@H](O)[C@H]3O)c(-c3ccc(O)cc3)oc12`, the concentration at half-maximal activity (AC50) was 19.6 µM.

`O=[N+]([O-])c1ccccc1/C=N/n1c(-c2cccnc2)n[nH]c1=S`: the concentration at half-maximal activity (AC50) is 28 µM.

With `COc1cccc(N(CC(=O)Nc2cccc(C(C)=O)c2)S(C)(=O)=O)c1`, the AC50 was > 30 µM (inactive).

Turning to `O=C1c2c(O)ccc(O)c2C(=O)c2c(NCCNCCO)ccc(NCCNCCO)c21`, the AC50 is 28.3 µM.

Consider `O=C(COc1ccccc1F)NC1CC1`, for which the AC50 was > 30 µM (inactive).

As to `CCCCCCCCCCOC(=O)Cn1c(COc2ccc(OC)cc2)[n+](C)c2ccccc21`, the AC50 was > 30 µM (inactive).

`NC(=O)c1ccsc1NC(=O)C1CC1`: the AC50 was > 30 µM (inactive).

For the compound `Cc1ccc(-c2cc(-c3n[nH]c(=S)o3)c3ccccc3n2)cc1`, the AC50 was 27.7 µM.

Take `N#CC1=C(SCC(=O)c2ccccc2)NC2=C(C(=O)CCC2)C1c1ccco1` (stereo not given): the AC50 is > 30 µM (inactive).

`CCOc1cc(C(c2c(C)[nH][nH]c2=O)c2c(C)[nH][nH]c2=O)ccc1O`: the AC50 was > 30 µM (inactive).

For the compound `O=C1CNC(=S)N1CCCn1ccnc1`, the AC50 is > 30 µM (inactive).

`Fc1ccccc1/C=N/Nc1ncnc2ccccc12`: the AC50 was > 30 µM (inactive).

`CCC(C)Sc1nc2c(c(=O)[nH]1)C(c1cccs1)C1=C(CCCC1=O)N2` (stereo not given): the AC50 was > 30 µM (inactive).

`CCC(=O)NCCNc1ccc([N+](=O)[O-])cn1`: the AC50 is > 30 µM (inactive).

In the case of `CCOC(=O)C1=C(C)NC(C)=C(C(=O)OCC)C1c1sccc1C`, the AC50 was > 30 µM (inactive).

Take `CCOc1cccc2sc(=NC(=O)c3ccco3)n(CC(=O)OC)c12`: the AC50 is 7.61 µM.

`CCSC1(SCC)N=C(N)C2(C#N)C(c3ccc(F)cc3)C12C#N` (stereo not given): the AC50 was > 30 µM (inactive).

Turning to `Oc1[nH]c2ccc(Br)cc2c1N=Nc1ccc(F)cc1`, the concentration at half-maximal activity (AC50) was 7.48 µM.

With `O=c1[nH]nc(SCCS(=O)(=O)c2ccc(F)cc2)n1-c1ccccc1C(F)(F)F`, the AC50 is 17.5 µM.

Turning to `CCOCCCN(C(=O)c1snc(C(N)=O)c1N)C(C(=O)NC1CCCC1)c1ccc(O)cc1` (stereo not given), the AC50 was 27 µM.

With `O=C1OCCC/C1=C\c1ccc2c(c1)OCO2`, the half-maximal activity concentration (AC50) was 23.3 µM.

Regarding `COc1ccc(Nc2nc(Cl)c(C=O)s2)cc1`, the AC50 was > 30 µM (inactive).

On to `CC(=O)c1cc(-c2ccc(F)cc2)n(CCC(=O)Nc2cccc(C)n2)c1C`, for which the AC50 was > 30 µM (inactive).

As to `CC1CCCC(C)N1C(=O)COC(=O)Cc1c[nH]c2ccccc12` (stereo not given), the AC50 was > 30 µM (inactive).

Take `Cc1noc(C)c1COc1cccc(C(=O)OC(C)C(=O)Nc2c(C)n(C)n(-c3ccccc3)c2=O)c1` (stereo not given): the AC50 is > 30 µM (inactive).

Take `CSc1ccc(/C=C2\NC(=O)NC2=O)cc1`: the AC50 is 27.9 µM.

`C/C(=N\NC(=O)c1nnn(-c2nonc2N)c1CN(C)C)c1ccco1`: the AC50 was > 30 µM (inactive).

On to `O=[N+]([O-])c1cnccc1NC1CCCCC1`, for which the AC50 was > 30 µM (inactive).

Turning to `CC1=C(C(=O)OCc2ccccc2)C(c2cccc(Br)c2)NC(=O)N1` (stereo not given), the AC50 is 28.7 µM.

In the case of `Cc1nn(-c2ccccc2)c(C)c1/C=C/C(=O)OCC(=O)Nc1ccc(C(N)=O)cc1`, the AC50 is > 30 µM (inactive).

In the case of `CC1CN(c2nc(Nc3ccccc3F)nc(N)c2[N+](=O)[O-])CC(C)O1` (stereo not given), the AC50 was 9.19 µM.

Take `CCNc1cc(N2CCCC2)ccc1[N+](=O)[O-]`: the AC50 was > 30 µM (inactive).

As to `CCOC(=O)N1CCC(N2CCN(S(=O)(=O)c3ccc(C)cc3)CC2)CC1`, the AC50 was > 30 µM (inactive).

As to `CCOC(=O)C1=C(O)/C(=C\c2sccc2C)N=C1C`, the AC50 was > 30 µM (inactive).

Consider `COc1ccc(OCC(=O)NCCCn2ccnc2)cc1`, for which the AC50 was > 30 µM (inactive).

For `O=C(CSc1cccc2cccnc12)N/N=C/c1ccc(O)cc1`, the AC50 was > 30 µM (inactive).
